Data published in patent US20250325493A1, “COMPOSITIONS AND METHODS FOR MAKING AND USING POLYMER-COATED NANOCAPSULES FOR TARGETED PHARMACEUTICAL AGENT DELIVERY” (The Regents of the University of Colorado, a body Corporate, priority 2022, published 2025).

Assays:
sBC clusters = experiment: Selective delivery of PTM toxin to sBC clusters, live/dead cell quantification; assay type: cell-based, human; conditions: 24 hours, vs untreated control
Procedure: Blank or pentamidine (PTM) (B-cell toxin) loaded NCs were left uncoated or coated with either an ENTPD3 antibody or BSA for up to about 168 hours. Untreated and 1 μM free PTM were utilized as additional controls. […] Although benzalkonium chloride (BKC) can be used for biological applications, it can be toxic to cells at high concentrations.
In further exemplary methods, the number of GFP positive and GFP negative dead cells were quantified as GFP correlates to insulin positive cells. For the dead sBC clusters, 76% at 24 hours (FIG. 20G) and 69% at 72 hours were GFP positive (FIG. 20H).

[1] = NC stability after freeze drying with cryoprotectant; assay type: physicochemical
Procedure: In another exemplary method, NC stability after freeze drying was tested as a potential method for preserving NCs for long term storage and use including analyzing NC integrity and cargo retention for extended periods of time. In this example, mannitol (a sugar alcohol example, e.g., sorbitol and the like) was chosen as the cryoprotectant. W/O NCs were utilized for this experiment. Mannitol concentrations of 2.5% w/v, 5.0 w/v, and 10.0 w/v were tested to determine the optimal concentration (FIG. 13A). […] SEM images were taken before (FIG. 13B) and after (FIG. 13C) freeze drying to confirm DLS measurements. It was observed that the NC yield decreased after reconstitution which may be attributed to the mannitol crystallizing and imposing mechanical forces either breaking the NCs or forming aggregates. It is noted that mannitol can be removed, if needed or desired, from the NC formulations by centrifugation and washing in either water or PBS.

| ability to replace mannitol as cryoprotectant in freeze drying of NCs [1] | Compound | percentage of dead cells (sBC clusters) |
| --- | --- | --- |
| – | N=C(N)c1ccc(OCCCCCOc2ccc(C(=N)N)cc2)cc1 [free PTM, pentamidine] | killed the majority of sBCs |
| failed to stabilize the NCs | OC[C@H]1O[C@H](O[C@]2(CCl)O[C@H](CCl)[C@@H](O)[C@@H]2O)[C@H](O)[C@@H](O)[C@H]1Cl [sucralose] | – |
| failed to stabilize the NCs | OC[C@H]1O[C@@](CO)(O[C@H]2O[C@H](CO)[C@@H](O)[C@H](O)[C@H]2O)[C@@H](O)[C@@H]1O [sucrose] | – |
